# Data reported in ChEMBL document CHEMBL3885881, “DrugMatrix”.
# Species on record: Rattus norvegicus
# Assay: DrugMatrix - Regimen: Daily Repeat
# Assay type: toxicity, organism-based, Sprague-Dawley
# Set-up: regimen Daily Repeat, gender Male, age 6-8 weeks
# Settings: in vivo, 0 mg/kg, dose level Control; for ABSOLUTE BASOPHIL / ABSOLUTE EOSINOPHIL / ABSOLUTE LYMPHOCYTE / ABSOLUTE MONOCYTE / ABSOLUTE SEGMENTED NEUTROPHIL / BASOPHIL / EOSINOPHIL / ERYTHROCYTE COUNT / HEMATOCRIT / HEMOGLOBIN / LEUKOCYTE COUNT / LYMPHOCYTE / MEAN CORPUSCULAR HEMOGLOBIN / MEAN CORPUSCULAR VOLUME / MONOCYTE / NEUTROPHIL / NUCLEATED RED BLOOD CELLS / PLATELET COUNT: tissue Blood; for ALANINE AMINOTRANSFERASE / ALBUMIN / ALKALINE PHOSPHATASE / ASPARTATE AMINOTRANSFERASE / BLOOD UREA NITROGEN / CARBON DIOXIDE / CHLORIDE / CHOLESTEROL / CREATINE PHOSPHOKINASE / CREATININE / GLUCOSE / LACTATE DEHYDROGENASE / LIPASE / PHOSPHORUS / POTASSIUM / SODIUM / TOTAL BILIRUBIN / TOTAL PROTEIN / URIC ACID: tissue Plasma
# [1] = po, 72 h, route oral GAVAGE, time 3 day, vehicle 100 % WATER
# [2] = po, 120 h, route oral GAVAGE, time 5 day, vehicle 100 % WATER
# [3] = sc, 72 h, route subcutaneous, time 3 day, […]
# [4] = sc, 120 h, route subcutaneous, time 5 day, […]
smiles,measurement,setting,value
CC(C)(C)CC(C)(C)c1ccc(OCCOCC[N+](C)(C)Cc2ccccc2)cc1.[Cl-] [BENZETHONIUM CHLORIDE],ABSOLUTE BASOPHIL,[1],0 CELLS/uL
same,ABSOLUTE EOSINOPHIL,[1],20.17 CELLS/uL
same,ABSOLUTE LYMPHOCYTE,[1],12371.67 CELLS/uL
same,ABSOLUTE MONOCYTE,[1],166 CELLS/uL
same,ABSOLUTE SEGMENTED NEUTROPHIL,[1],1292.17 CELLS/uL
same,BASOPHIL,[1],0%
same,EOSINOPHIL,[1],0.17%
same,ERYTHROCYTE COUNT,[1],5.46 x10E6/uL
same,HEMATOCRIT,[1],34.38%
same,HEMOGLOBIN,[1],13.32 G/DL
same,LEUKOCYTE COUNT,[1],13.85 x10E3/uL
same,LYMPHOCYTE,[1],88.5%
same,MEAN CORPUSCULAR HEMOGLOBIN,[1],24.42 pg
same,MEAN CORPUSCULAR VOLUME,[1],63.07 fL
same,MONOCYTE,[1],1.17%
same,NEUTROPHIL,[1],10.17%
same,NUCLEATED RED BLOOD CELLS,[1],0.17 /100WBC
same,PLATELET COUNT,[1],1193.5 x10E3/uL
same,ALANINE AMINOTRANSFERASE,[1],54.5 u/L
same,ALBUMIN,[1],4.02 G/DL
same,ALKALINE PHOSPHATASE,[1],346.5 u/L
same,ASPARTATE AMINOTRANSFERASE,[1],103.17 u/L
same,BLOOD UREA NITROGEN,[1],16.5 mg/dL
same,CARBON DIOXIDE,[1],29.83 mmol/L
same,CHLORIDE,[1],99.5 MEQ/L
same,CHOLESTEROL,[1],72.5 mg/dL
same,CREATINE PHOSPHOKINASE,[1],532.5 u/L
same,CREATININE,[1],0.18 mg/dL
same,GLUCOSE,[1],168.5 mg/dL
same,LACTATE DEHYDROGENASE,[1],536.5 u/L
same,LIPASE,[1],11.17 u/L
same,PHOSPHORUS,[1],11.48 mg/dL
same,POTASSIUM,[1],5.95 MEQ/L
same,SODIUM,[1],140.5 MEQ/L
same,TOTAL BILIRUBIN,[1],0.18 mg/dL
same,TOTAL PROTEIN,[1],5.77 G/DL
same,URIC ACID,[1],1.42 mg/dL
same,ABSOLUTE BASOPHIL,[2],0 CELLS/uL
same,ABSOLUTE EOSINOPHIL,[2],22.83 CELLS/uL
same,ABSOLUTE LYMPHOCYTE,[2],12202.83 CELLS/uL
same,ABSOLUTE MONOCYTE,[2],158 CELLS/uL
same,ABSOLUTE SEGMENTED NEUTROPHIL,[2],1283 CELLS/uL
same,BASOPHIL,[2],0%
same,EOSINOPHIL,[2],0.17%
same,ERYTHROCYTE COUNT,[2],5.88 x10E6/uL
same,HEMATOCRIT,[2],36.62%
same,HEMOGLOBIN,[2],14.07 G/DL
same,LEUKOCYTE COUNT,[2],13.67 x10E3/uL
same,LYMPHOCYTE,[2],89.5%
same,MEAN CORPUSCULAR HEMOGLOBIN,[2],23.95 pg
same,MEAN CORPUSCULAR VOLUME,[2],62.28 fL
same,MONOCYTE,[2],1.17%
same,NEUTROPHIL,[2],9.17%
same,NUCLEATED RED BLOOD CELLS,[2],0.17 /100WBC
same,PLATELET COUNT,[2],1198 x10E3/uL
same,ALANINE AMINOTRANSFERASE,[2],51 u/L
same,ALBUMIN,[2],4.3 G/DL
same,ALKALINE PHOSPHATASE,[2],343 u/L
same,ASPARTATE AMINOTRANSFERASE,[2],89.83 u/L
same,BLOOD UREA NITROGEN,[2],17.67 mg/dL
same,CARBON DIOXIDE,[2],27.17 mmol/L
same,CHLORIDE,[2],98.33 MEQ/L
same,CHOLESTEROL,[2],82.5 mg/dL
same,CREATINE PHOSPHOKINASE,[2],533.33 u/L
same,CREATININE,[2],0.18 mg/dL
same,GLUCOSE,[2],152.67 mg/dL
same,LACTATE DEHYDROGENASE,[2],220.33 u/L
same,LIPASE,[2],11.5 u/L
same,PHOSPHORUS,[2],11.25 mg/dL
same,POTASSIUM,[2],6.29 MEQ/L
same,SODIUM,[2],140.53 MEQ/L
same,TOTAL BILIRUBIN,[2],0.22 mg/dL
same,TOTAL PROTEIN,[2],6.12 G/DL
same,URIC ACID,[2],1.42 mg/dL
same,ABSOLUTE BASOPHIL,[3],0 CELLS/uL
same,ABSOLUTE EOSINOPHIL,[3],92.33 CELLS/uL
same,ABSOLUTE LYMPHOCYTE,[3],12247.5 CELLS/uL
same,ABSOLUTE MONOCYTE,[3],389.67 CELLS/uL
same,ABSOLUTE SEGMENTED NEUTROPHIL,[3],1320.5 CELLS/uL
same,BASOPHIL,[3],0%
same,EOSINOPHIL,[3],0.67%
same,ERYTHROCYTE COUNT,[3],5.45 x10E6/uL
same,HEMATOCRIT,[3],34.85%
same,HEMOGLOBIN,[3],12.97 G/DL
same,LEUKOCYTE COUNT,[3],14.05 x10E3/uL
same,LYMPHOCYTE,[3],87.33%
same,MEAN CORPUSCULAR HEMOGLOBIN,[3],23.78 pg
same,MEAN CORPUSCULAR VOLUME,[3],63.93 fL
same,MONOCYTE,[3],2.67%
same,NEUTROPHIL,[3],9.33%
same,NUCLEATED RED BLOOD CELLS,[3],0 /100WBC
same,PLATELET COUNT,[3],1174 x10E3/uL
same,ALANINE AMINOTRANSFERASE,[3],48.83 u/L
same,ALBUMIN,[3],4.23 G/DL
same,ALKALINE PHOSPHATASE,[3],351.5 u/L
same,ASPARTATE AMINOTRANSFERASE,[3],90 u/L
same,BLOOD UREA NITROGEN,[3],15.33 mg/dL
same,CARBON DIOXIDE,[3],23 mmol/L
same,CHLORIDE,[3],103.5 MEQ/L
same,CHOLESTEROL,[3],70.5 mg/dL
same,CREATINE PHOSPHOKINASE,[3],651.83 u/L
same,CREATININE,[3],0.22 mg/dL
same,GLUCOSE,[3],180.67 mg/dL
same,LACTATE DEHYDROGENASE,[3],165 u/L
same,LIPASE,[3],9.33 u/L
same,PHOSPHORUS,[3],12.03 mg/dL
same,POTASSIUM,[3],6.17 MEQ/L
same,SODIUM,[3],142.62 MEQ/L
same,TOTAL BILIRUBIN,[3],0.2 mg/dL
same,TOTAL PROTEIN,[3],5.73 G/DL
same,URIC ACID,[3],1.77 mg/dL
same,ABSOLUTE BASOPHIL,[4],0 CELLS/uL
same,ABSOLUTE EOSINOPHIL,[4],0 CELLS/uL
same,ABSOLUTE LYMPHOCYTE,[4],12736.67 CELLS/uL
same,ABSOLUTE MONOCYTE,[4],253.5 CELLS/uL
same,ABSOLUTE SEGMENTED NEUTROPHIL,[4],1193.17 CELLS/uL
same,BASOPHIL,[4],0%
same,EOSINOPHIL,[4],0%
same,ERYTHROCYTE COUNT,[4],5.72 x10E6/uL
same,HEMATOCRIT,[4],36.05%
same,HEMOGLOBIN,[4],13.62 G/DL
same,LEUKOCYTE COUNT,[4],14.18 x10E3/uL
same,LYMPHOCYTE,[4],89.33%
same,MEAN CORPUSCULAR HEMOGLOBIN,[4],23.83 pg
same,MEAN CORPUSCULAR VOLUME,[4],63.05 fL
same,MONOCYTE,[4],1.83%
same,NEUTROPHIL,[4],8.83%
same,NUCLEATED RED BLOOD CELLS,[4],0 /100WBC
same,PLATELET COUNT,[4],1322.17 x10E3/uL
same,ALANINE AMINOTRANSFERASE,[4],48.83 u/L
same,ALBUMIN,[4],4.27 G/DL
same,ALKALINE PHOSPHATASE,[4],295.17 u/L
same,ASPARTATE AMINOTRANSFERASE,[4],75.83 u/L
same,BLOOD UREA NITROGEN,[4],15.5 mg/dL
same,CARBON DIOXIDE,[4],30.5 mmol/L
same,CHLORIDE,[4],102.33 MEQ/L
same,CHOLESTEROL,[4],76.17 mg/dL
same,CREATINE PHOSPHOKINASE,[4],205.5 u/L
same,CREATININE,[4],0.2 mg/dL
same,GLUCOSE,[4],149.67 mg/dL
same,LACTATE DEHYDROGENASE,[4],124.5 u/L
same,LIPASE,[4],10 u/L
same,PHOSPHORUS,[4],10.93 mg/dL
same,POTASSIUM,[4],6.59 MEQ/L
same,SODIUM,[4],143.1 MEQ/L
same,TOTAL BILIRUBIN,[4],0.2 mg/dL
same,TOTAL PROTEIN,[4],6.05 G/DL
same,URIC ACID,[4],1.45 mg/dL
